Measurements: PMC4078008, “Exploring metabolic engineering design principles for the photosynthetic production of lactic acid by Synechocystis sp. PCC6803” (Biotechnology for Biofuels, 2014)

Legend:
PK-F of E. coli = target: T1, PK-F of E. coli (Escherichia coli, UniProt P0AD61); assay: LDH-coupled PK assay in cell-free extract with and without FBP; format: biochemical; conditions: activator; 3 mM FBP, 50 mM Tris-HCl pH 7.6, 5 mM MgCl2, 100 mM KCl, 0.6 mM ADP, 5 mM PEP, 30 °C
T1 construct: gene pykF; codon-optimized gene expressed in Synechocystis sp; PCC6803 (strain SYW004); cell-free extract
T1 sequence (P0AD61 whole entry): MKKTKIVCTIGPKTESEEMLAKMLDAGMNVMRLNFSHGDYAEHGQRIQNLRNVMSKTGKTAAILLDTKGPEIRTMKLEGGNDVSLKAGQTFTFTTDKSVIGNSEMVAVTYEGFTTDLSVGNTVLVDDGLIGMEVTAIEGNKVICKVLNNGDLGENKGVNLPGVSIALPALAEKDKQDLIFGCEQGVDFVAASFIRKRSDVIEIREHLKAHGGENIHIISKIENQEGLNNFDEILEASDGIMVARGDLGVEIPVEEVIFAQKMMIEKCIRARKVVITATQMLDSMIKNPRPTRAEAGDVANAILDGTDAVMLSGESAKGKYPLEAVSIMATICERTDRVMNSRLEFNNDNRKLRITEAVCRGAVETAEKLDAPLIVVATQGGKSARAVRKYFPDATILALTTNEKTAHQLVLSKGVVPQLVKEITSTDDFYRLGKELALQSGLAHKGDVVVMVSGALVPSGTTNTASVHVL

[1] = target: T2, L-LDH of L. lactis (LlLDH) (Lactococcus cremoris, UniProt A2RKA4); assay: NAD(P)H consumption at […] nm in cell-free extract; format: biochemical; conditions: 100 mM Tris-HCl pH 7.2, 2.5 mM MgCl2, 3 mM FBP, 300 uM NADH, 30 mM pyruvate, 30 °C
T2 construct: full-length, codon-optimized gene expressed in Synechocystis sp; PCC6803; cell-free extract
T2 sequence (A2RKA4 1-325): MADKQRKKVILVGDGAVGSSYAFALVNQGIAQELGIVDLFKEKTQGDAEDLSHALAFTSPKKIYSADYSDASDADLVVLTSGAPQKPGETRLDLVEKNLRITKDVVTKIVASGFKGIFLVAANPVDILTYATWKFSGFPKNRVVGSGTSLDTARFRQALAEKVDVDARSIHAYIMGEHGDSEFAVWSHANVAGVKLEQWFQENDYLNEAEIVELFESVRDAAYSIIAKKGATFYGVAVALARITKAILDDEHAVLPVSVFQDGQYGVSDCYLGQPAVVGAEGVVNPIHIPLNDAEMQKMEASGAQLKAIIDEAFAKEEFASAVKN

| SMILES | relative activity with and without FBP (PK-F of E. coli) | relative activity [1] |
| --- | --- | --- |
| O=P(O)(O)OC[C@H]1OC(O)(COP(=O)(O)O)[C@@H](O)[C@@H]1O (some centres unmarked) [FBP] | The activity assays confirmed the FBP dependency of the selected PK-F enzymes |  |
| NC(=O)C1=CN([C@@H]2O[C@H](COP(=O)(O)OP(=O)(O)OC[C@H]3O[C@@H](n4cnc5c(N)ncnc54)[C@H](O)[C@@H]3O)[C@@H](O)[C@H]2O)C=CC1 [NADH] |  | Both show similar activity for NADH (Figure 5C) and similar expression levels |
